Measurements taken from article PMC3377386 (Pharmaceutical Research, 2011).
Counter-ions that a name gives are not always drawn. Like-named read-outs stand apart in the source and are kept apart here.

How the values were obtained:
[1] = hairless, guinea pig, in vivo
[2] = in seven days; a similarly done study (reference not given); cited from earlier work
[3] = I.V. dose of 3 mg/kg; cited from earlier work
[4] = for Css: one 50-MN array
[5] = MN + Solaraze® + 16% NTX·HCl, n=4

In the case of O=C1CC[C@@]2(O)[C@H]3Cc4ccc(O)c5c4[C@@]2(CCN3CC2CC2)[C@H]1O5 [NTX·HCl, naltrexone HCl], the “total delivery of naltrexone” value [1] is listed as 2.65 mg, the “fraction of the total drug applied delivered through the skin” value [2] is listed as “less than 5%” and the “systemic dose AUC” value [3] is listed as 546 ng/mL/h. The “delivered fraction of the dose” value ([4]; 2.65 mg of 80 mg NTX applied to the MN-treated area) was “less than 5%”, the Css ([4]; MN + 16% NTX·HCl (control, no Solaraze®), n=4) was 3.4 ± 1.3 ng/mL and the Tlag ([4]; MN + 16% NTX·HCl (no Solaraze®), n=4) was 1.8 ± 1.5 h. For the same compound, the “duration of increased plasma levels (Css)” value ([4]; MN + Solaraze® + 16% NTX·HCl gel, n=4) was “seven”, the Tlag [4, 5] was 21.5 ± 12.6 h and the Css [4, 5] was 7.0 ± 1.5 ng/mL. For the same compound, the “time at which NTX·HCl levels returned to baseline” value ([4]; control: one-time MN + 0.5 g 16% NTX·HCl, 6.7 cm^2, no Solaraze®) was at most 60 h and the “flux corresponding to the steady-state concentration” value ([4]; from Css of 7.0 ng/ml, 6.7 cm^2 patch) was “approximately 16.14 nmol/cm^2/h”.
